SMILES strings stand for the structures.

The test system of one data set is Spodoptera frugiperda. As to the kind of experiment: Spodoptera frugiperda spray test. To be noted: after 7 days, maize leaf discs. It is filed as in vivo. The essentials:
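Efficacy in % was scored at 7 days against armyworm caterpillars placed on dried, compound-sprayed Zea mays leaf discs. Compound was dissolved in acetone/dimethylformamide and diluted in water with 1000 ppm alkylaryl polyglycol ether. 100% means all caterpillars were killed.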

For the next data set, the system named is Ctenocephalides felis. As to the kind of experiment: Ctenocephalides felis oral test. It is filed as in vivo. To be noted: application rate 100 ppm in citrated cattle blood, after 2 days, adult cat fleas. The essentials:
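Kill (%) was recorded at 2 days. Compound, dissolved in DMSO and diluted into citrated cattle blood, was offered to roughly 20 unfed adult C. felis through parafilm.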

The next data set has as its system Phaedon cochleariae. As to the kind of experiment: Phaedon cochleariae spray test. To be noted: after 7 days, Chinese cabbage leaf discs. It is filed as in vivo. The essentials: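 Larval kill read at day 7 as percent, where 100% means every larva dead and 0% none; larvae were placed on dried Brassica pekinensis leaf discs previously sprayed with the formulation (acetone/dimethylformamide solvent, alkylaryl polyglycol ether emulsifier, water).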

Data set [1] is described as follows: log P by HPLC on reversed-phase column (C 18), EEC Directive 79/831 Annex V.A8. It is filed as physicochemical. To be noted: 55° C.; for LOGP_HCOOH: log P (HCOOH); for LOGP_NEUTRAL: log P, neutral range. As to the method:
Temperature: 55° C. […] Called log P (HCOOH) in the table. […] Called log P (neutral) in the table.

The subject of another data set is Musca domestica. As to the kind of experiment: Musca domestica test. It is filed as in vivo. To be noted: application rate 100 ppm, after 2 days, adult houseflies. As to the method:
Musca domestica Test Solvent: dimethyl sulphoxide To produce a suitable active ingredient formulation, 10 mg of active ingredient are mixed with 0.5 ml of dimethyl sulphoxide, and the concentrate is diluted with water to the desired concentration. Vessels containing a sponge treated with sugar solution and the active ingredient formulation of the desired concentration are populated with 10 adult houseflies (Musca domestica). After 2 days, the kill in % is determined. 100% means that all of the flies have been killed; 0% means that none of the flies have been killed.

The test system of another data set is Lucilia cuprina. As to the kind of experiment: Lucilia cuprina test. It is filed as in vivo. To be noted: application rate 100 ppm, after 2 days, L1 larvae. The essentials: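 Percent mortality read at day 2, where 100% means all larvae dead. Roughly 20 L1 larvae were exposed on minced horsemeat treated with a DMSO/water formulation at the desired concentration.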

The mark [2] stands for this setting: acidic range at pH 2.7, 0.1% aqueous formic acid and acetonitrile, HPLC on reversed-phase column (C 18).
Setting [3] is: HPLC on reversed-phase column (C 18).
Setting [4] is: acidic range pH 2.7, 0.1% aqueous formic acid and acetonitrile, reversed-phase column (C 18).

For `O=C(NCc1ccc([N+](=O)[O-])cc1)c1cc(-c2ccc(C(F)(F)C(F)(F)F)cc2)cc(NC(=O)C2CC2)n1` [Example I-196], the “efficacy (caterpillars killed)” value in the data set with Spodoptera frugiperda (application rate 100 g/ha) and with Spodoptera frugiperda (application rate 500 g/ha) was 100% in each case. Also, the “efficacy (kill in %)” value with Ctenocephalides felis came to 100%; with Musca domestica it was 80%; in the data set on Lucilia cuprina, 100%. Further, the “efficacy (beetle larvae killed)” value with Phaedon cochleariae (application rate 100 g/ha) and in the data set with Phaedon cochleariae (application rate 500 g/ha) was 100% in each case. In addition, the LOGP_HCOOH in data set [1] (setting [2]) is listed as 4.37. Besides, the LOGP_NEUTRAL in data set [1] (setting [3]) is reported as 4.30.
For `N#Cc1ccc(C2(NC(=O)c3cc(-c4ccc(OC(F)(F)F)cc4)cc(NC(=O)C4CC4)n3)CC2)cc1` [Example I-159], the “efficacy (caterpillars killed)” value in the data set on Spodoptera frugiperda (application rate 100 g/ha) and in the data set on Spodoptera frugiperda (application rate 500 g/ha) was 100% each time. Moreover, the “efficacy (kill in %)” value was found to be 100% with Ctenocephalides felis, 80% in the data set with Musca domestica and 90% in the data set on Lucilia cuprina. The LOGP_HCOOH in data set [1] (setting [2]) worked out at 4.08. The compound also displayed an LOGP_NEUTRAL in data set [1] (setting [3]) of 3.93.
For the compound `N#Cc1ccc(CNC(=O)c2cc(-c3ccc(C(F)(F)F)cc3)cc(NC(=O)C3CC3)n2)c(F)c1` [Example I-077], the “efficacy (caterpillars killed)” value in the data set with Spodoptera frugiperda (application rate 100 g/ha) and in the data set on Spodoptera frugiperda (application rate 500 g/ha) was 100% throughout. The “efficacy (kill in %)” value in the data set with Ctenocephalides felis worked out at 100%; in the data set on Musca domestica it was 80%; with Lucilia cuprina, 100%. The “efficacy (beetle larvae killed)” value in the data set with Phaedon cochleariae (application rate 100 g/ha) was determined as 83%; in the data set on Phaedon cochleariae (application rate 500 g/ha) it was 100%. The LOGP_HCOOH in data set [1] (setting [4]) worked out at 3.90. For the same compound, the LOGP_NEUTRAL in data set [1] (setting [3]) amounted to 3.79.
Regarding `N#Cc1ccc(CNC(=O)c2cc(-c3cc(F)c(OC(F)(F)F)c(F)c3)cc(NC(=O)C3CC3)n2)cc1` [Example I-152], the “efficacy (caterpillars killed)” value with Spodoptera frugiperda (application rate 100 g/ha) and in the data set with Spodoptera frugiperda (application rate 500 g/ha) was 100% in each case. For the same compound, the results for the “efficacy (kill in %)” value with Ctenocephalides felis, in the data set with Musca domestica and in the data set with Lucilia cuprina were 100%, 90% and 90%, respectively. Besides, the “efficacy (beetle larvae killed)” value in the data set on Phaedon cochleariae (application rate 100 g/ha) and with Phaedon cochleariae (application rate 500 g/ha) was 100% throughout. In data set [1] (setting [2]), this compound returned an LOGP_HCOOH of 4.14. This compound gave an LOGP_NEUTRAL in data set [1] (setting [3]) of 4.05.
On to `O=C(NCc1ccc([N+](=O)[O-])cc1)c1cc(-c2ccc(OC(F)(F)F)cc2)cc(NC(=O)C2CC2)n1` [Example I-085], for which the “efficacy (caterpillars killed)” value in the data set on Spodoptera frugiperda (application rate 100 g/ha) and with Spodoptera frugiperda (application rate 500 g/ha) was 100% in each case. Also, the entries for the “efficacy (kill in %)” value with Ctenocephalides felis, with Musca domestica and in the data set on Lucilia cuprina were 100%, 80% and 100%, respectively. Moreover, the “efficacy (beetle larvae killed)” value in the data set with Phaedon cochleariae (application rate 100 g/ha) and with Phaedon cochleariae (application rate 500 g/ha) was 100% throughout. The compound further displayed an LOGP_HCOOH in data set [1] (setting [4]) of 4.11. Also, in data set [1] (setting [3]), the LOGP_NEUTRAL is 3.97.
Consider `CC(C)C(=O)Nc1cc(-c2ccc(OC(F)(F)F)cc2)cc(C(=O)NCc2cc(F)c(C#N)c(F)c2)n1` [Example I-073], for which the “efficacy (caterpillars killed)” value in the data set on Spodoptera frugiperda (application rate 100 g/ha) is listed as 83%; in the data set with Spodoptera frugiperda (application rate 500 g/ha) it was 100%. In addition, the “efficacy (kill in %)” value with Ctenocephalides felis was found to be 100%; in the data set on Musca domestica, 80%; in the data set on Lucilia cuprina, 100%. Further, the LOGP_HCOOH in data set [1] (setting [4]) came out at 4.35. The compound further had an LOGP_NEUTRAL in data set [1] (setting [3]) of 4.21.
`N#Cc1ccc(CNC(=O)c2cc(-c3ccc4c(c3)OC(F)(F)C(F)(F)O4)cc(NC(=O)C3CC3)n2)cc1` [Example I-172]: the “efficacy (caterpillars killed)” value in the data set with Spodoptera frugiperda (application rate 100 g/ha) and with Spodoptera frugiperda (application rate 500 g/ha) was 100% in each case. For the same compound, the “efficacy (kill in %)” value with Ctenocephalides felis, with Musca domestica and in the data set on Lucilia cuprina was 100% throughout. In the data set with Phaedon cochleariae (application rate 500 g/ha), the “efficacy (beetle larvae killed)” value is on record as 100%. The compound further showed an LOGP_HCOOH in data set [1] (setting [2]) of 4.27. Moreover, the LOGP_NEUTRAL in data set [1] (setting [3]) amounted to 4.57.
Regarding `CC(NC(=O)c1cc(-c2ccc(C(F)(F)F)cc2)cc(NC(=O)C2CC2)n1)c1ccc(C#N)cc1` (centres unmarked) [Example I-040], the results for the “efficacy (caterpillars killed)” value with Spodoptera frugiperda (application rate 100 g/ha) and with Spodoptera frugiperda (application rate 500 g/ha) were 83% and 100%, respectively. In addition, the “efficacy (kill in %)” value in the data set with Ctenocephalides felis was found to be 98%; in the data set on Musca domestica, 90%; in the data set on Lucilia cuprina it was 100%. Also, the “efficacy (beetle larvae killed)” value in the data set on Phaedon cochleariae (application rate 100 g/ha) and in the data set on Phaedon cochleariae (application rate 500 g/ha) was 100% throughout. In data set [1] (setting [4]), this compound gave an LOGP_HCOOH of 4.01. In addition, the LOGP_NEUTRAL in data set [1] (setting [3]) turned out to be 3.94.
For `N#Cc1ccc(CNC(=O)c2cc(-c3cc(F)c(OC(F)F)c(F)c3)cc(NC(=O)C3CC3)n2)cc1` [Example I-155], the “efficacy (caterpillars killed)” value in the data set on Spodoptera frugiperda (application rate 100 g/ha) and in the data set with Spodoptera frugiperda (application rate 500 g/ha) was 100% in each case. Moreover, the “efficacy (kill in %)” value in the data set with Ctenocephalides felis, in the data set with Musca domestica and in the data set with Lucilia cuprina was 100% in each case. In addition, the “efficacy (beetle larvae killed)” value with Phaedon cochleariae (application rate 500 g/ha) is 83%. The compound also had an LOGP_HCOOH in data set [1] (setting [2]) of 3.46. Moreover, in data set [1] (setting [3]), the LOGP_NEUTRAL is reported as 3.40.
In the case of `N#Cc1cc(F)c(CNC(=O)c2cc(-c3ccc(C(F)(F)F)cc3)cc(NC(=O)C3CC3)n2)cc1F` [Example I-074], the “efficacy (caterpillars killed)” value in the data set on Spodoptera frugiperda (application rate 100 g/ha) and with Spodoptera frugiperda (application rate 500 g/ha) was 100% each time. Moreover, the “efficacy (kill in %)” value in the data set on Ctenocephalides felis, in the data set on Musca domestica and in the data set on Lucilia cuprina was 100% throughout. Moreover, the “efficacy (beetle larvae killed)” value in the data set with Phaedon cochleariae (application rate 100 g/ha) and with Phaedon cochleariae (application rate 500 g/ha) was 100% throughout. In data set [1] (setting [4]), this compound had an LOGP_HCOOH of 4.05. Moreover, the LOGP_NEUTRAL in data set [1] (setting [3]) is 3.90.
Take `Cn1nccc1-c1ccc(CNC(=O)c2cc(-c3ccc(OC(F)(F)F)cc3)cc(NC(=O)C3CC3)n2)cc1` [Example I-107]: the “efficacy (caterpillars killed)” value in the data set on Spodoptera frugiperda (application rate 500 g/ha) was 100%. The “efficacy (beetle larvae killed)” value in the data set on Phaedon cochleariae (application rate 100 g/ha) and in the data set on Phaedon cochleariae (application rate 500 g/ha) was 100% each time. In addition, the LOGP_HCOOH in data set [1] (setting [4]) was determined as 3.86. This compound also returned an LOGP_NEUTRAL in data set [1] (setting [3]) of 3.80. For the same compound, the “efficacy (kill in %)” value in the data set on Musca domestica is recorded as 90%; in the data set with Lucilia cuprina, 100%.
On to `O=C(NCc1ccc(C(F)(F)F)cc1)c1cc(-c2ccc(C(F)(F)F)cc2)cc(NC(=O)C2CC2)n1` [Example I-027], for which the “efficacy (caterpillars killed)” value in the data set on Spodoptera frugiperda (application rate 100 g/ha) and in the data set on Spodoptera frugiperda (application rate 500 g/ha) was 100% in each case. Besides, the figures for the “efficacy (kill in %)” value with Ctenocephalides felis and in the data set on Lucilia cuprina were 100% and 90%, respectively. Besides, the “efficacy (beetle larvae killed)” value in the data set on Phaedon cochleariae (application rate 100 g/ha) and in the data set on Phaedon cochleariae (application rate 500 g/ha) was 100% in each case. Besides, in data set [1] (setting [4]), the LOGP_HCOOH was 4.62. In data set [1] (setting [3]), this compound showed an LOGP_NEUTRAL of 4.50.
As for `N#Cc1ccc(CNC(=O)c2cc(-c3ccc(SC(F)(F)C(F)F)cc3)cc(NC(=O)C3CC3)n2)cc1` [Example I-178, N-(4-Cyanobenzyl)-6-[(cyclopropylcarbonyl)amino]-4-{4-[(1,1,2,2-tetrafluoroethyl)sulphanyl]phenyl}pyridine-2-carboxamide], the pest or weed control at 100 g/ha with Spodoptera frugiperda (Spodoptera frugiperda, foliar, 168 h, application rate 100 g/ha, read-out: efficacy (caterpillars killed)) stood at 100%; with Phaedon cochleariae (Phaedon cochleariae, foliar, 168 h, application rate 100 g/ha, read-out: efficacy (beetle larvae killed)), 100%. In addition, the pest or weed control at 500 g/ha in the data set with Spodoptera frugiperda (Spodoptera frugiperda, foliar, 168 h, application rate 500 g/ha, read-out: efficacy (caterpillars killed)) was 100%; in the data set with Phaedon cochleariae (Phaedon cochleariae, foliar, 168 h, application rate 500 g/ha, read-out: efficacy (beetle larvae killed)), 100%. Besides, the pest or weed control at 100 ppm in the data set with Ctenocephalides felis (Ctenocephalides felis, po, 48 h, read-out: efficacy (kill in %)) was 100%. Moreover, the LOGP_HCOOH in data set [1] (setting [2]) is 3.81. Moreover, the chromatographic logP in data set [1] (reversed-phase HPLC column (C 18), pH 2.7, LC-MS acidic range, pH 2.7, 0.1% formic acid/acetonitrile, read-out: log P (acidic) / log P (HCOOH)) came out at 3.81. The “efficacy (kill in %)” value in the data set on Lucilia cuprina amounted to 100%.

These data come from patent US20190053492A1, “SUBSTITUTED PYRIDINE COMPOUNDS AS PESTICIDES” (Bayer CropScience Aktiengesellschaft, priority 2016, published 2019).
